The source of these data is US20180245049A1, “METHOD FOR INDUCING DIFFERENTIATION OF STEM CELLS” (STICHTING KATHOLIEKE UNIVERSITEIT, priority 2015, published 2018).

The subject of data set [1] is hMSCs. Briefly: Live/dead assay (calcein-AM and MTT) of gel-encapsulated cells. It counts as cell-based, human. The note with it: live/dead assay after 48 h and 96 h of culture, 50 nM. On the procedure:
Cell Culture. Human Mesenchymal Stem Cells (hMSCs) were obtained from Lonza, Inc. (Switzerland). Cells were then cultured in α-MEM medium (lnvitrogen) supplemented with 10% fetal bovine serum (FBS), 1% penicillin/streptomycin and incubated in a humidified atmosphere containing 5% (v/v) CO2 at 37° C. For the encapsulation of cells in the gels, first, the cell pellets were obtained by centrifugation. Then 500 μL of the cold polymer solution (˜10° C.) was added directly to the pellet, followed by a gentle pipetting up and down 3-4 times to ensure a homogeneous mixture that was directly put onto a cover slip in a 6-well plate (also kept cold). Thereafter, the solution was sandwiched between two cover slips and the well plate was transferred to a 37° C. incubator. The volume of the suspension was chosen (500 μL) in order to obtain hydrogel thickness in the range of 3 mm. […] To evaluate proliferation, total double-stranded DNA content was determined by using the PicoGreen assay as previously reported.
MTT Assay. As described in literature, briefly, cell viability was determined by the 3-(4,5-dimethylthiazol-2-yl)-2,5-diphenyltetrazolium bromide (MTT) assay and the data are presented as a percentage of control viability.
Live/Dead Staining. Cell viability was determined with the live/dead viability/cytotoxicity kit (Molecular Probes), according to the manufacturer's protocol.

Data set [2] relates to hMSCs. Briefly: Lineage commitment and differentiation of gel-encapsulated hMSCs in bipotential differentiation medium (STRO-1, Osterix, Oil-red O staining). The format is cell-based, human. The method, then:
Cell Culture. Human Mesenchymal Stem Cells (hMSCs) were obtained from Lonza, Inc. (Switzerland). Cells were then cultured in α-MEM medium (lnvitrogen) supplemented with 10% fetal bovine serum (FBS), 1% penicillin/streptomycin and incubated in a humidified atmosphere containing 5% (v/v) CO2 at 37° C. For the encapsulation of cells in the gels, first, the cell pellets were obtained by centrifugation. Then 500 μL of the cold polymer solution (˜10° C.) was added directly to the pellet, followed by a gentle pipetting up and down 3-4 times to ensure a homogeneous mixture that was directly put onto a cover slip in a 6-well plate (also kept cold). Thereafter, the solution was sandwiched between two cover slips and the well plate was transferred to a 37° C. incubator. The volume of the suspension was chosen (500 μL) in order to obtain hydrogel thickness in the range of 3 mm. […] Afterwards, the gel becomes stiffer with time and attains the final stiffness in 2-3 minutes. This favors the supporting of cells in 3D rather than the cells settling at the bottom. After gel formation, the two cover slips were removed and α-MEM medium (without serum) was added. All cell culture experiments were carried out without any serum in the medium for the first 6 h of culture. Then, α-MEM medium with 10% serum was added. All cells were used at low passage numbers (≤passage 4), were subconfluently cultured and were seeded at 10^6 cells/mL for the purpose of the experiments and in order to avoid cell-cell contacts. The lineage commitment and differentiation of the gel encapsulated hMSCs after 96 h and 3 weeks of culture, respectively, were investigated with bipotential differentiation medium (1:1 v/v osteogenic and adipogenic media, Lonza). For all the experiments, a non-functionalized soft polymer gel (cell culture in growth medium) served as control. […] The pharmacological agents used were 50 μM Blebbistatin (EMD Biosciences-Calbiochem), 1 μM cytochalasin D (Sigma) and 50 nM Taxol (Abcam). The hMSCs were exposed to each pharmacological agent for 1 h, 24 h and 72 h, respectively, after seeding on a modified polymer. For antibody inhibition studies, cells were preincubated with 5 ng/mL anti-α1, 2, 3 and 5-β1, 2 (all from Santa Cruz Biotechnology). For competition experiments with soluble RGD peptides, the cells were incubated in 1 mL of cell culture media containing 200 μg of RGDS peptides during 20 min on plastic and then transferred to the polymer gels. To evaluate proliferation, total double-stranded DNA content was determined by using the PicoGreen assay as previously reported.
Immunostaining. […]

As to `CC(=O)O[C@H]1C(=O)[C@@]2(C)[C@H]([C@H](OC(=O)c3ccccc3)[C@]3(O)C[C@H](OC(=O)[C@H](O)[C@@H](NC(=O)c4ccccc4)c4ccccc4)C(C)=C1C3(C)C)[C@]1(OC(C)=O)CO[C@@H]1C[C@@H]2O` [Taxol], the “cell viability after Taxol treatment” value in the data set with hMSCs [1] was “did not affect cell viability”. The “hMSCs commitment after Taxol treatment” value in the data set on hMSCs [2] (50 nM) was “decrease in hMSCs commitment”.
As for `C=C1[C@@H](C)[C@H]2[C@H](Cc3ccccc3)NC(=O)[C@]23[C@H](OC(C)=O)/C=C/[C@@](C)(O)C(=O)[C@@H](C)C/C=C/[C@H]3[C@@H]1O` [cytochalasin-D], the “hMSCs commitment after cytochalasin-D treatment” value with hMSCs [2] (1 μM, towards both osteogenesis and adipogenesis) is on record as “overall decreased commitment”.
In the case of `Cc1ccc2c(c1)C(=O)C1(O)CCN(c3ccccc3)C1=N2` (centres unmarked) [blebbistatin], in the data set with hMSCs [2] (50 μM, all the polymer gels), the “STRO-1 in encapsulated cells in presence of blebbistatin” value is given as “high levels of STRO-1” and the “hMSCs commitment in presence of blebbistatin” value is on record as “inhibited the hMSCs commitment”.
